{
  "source": "PubChem BioAssay AID1963835",
  "about": "(Molecular Pharmacology Branch, DTP, NCI, 2024)",
  "system": "699152-130-R-J1-PDC complex spheroid viability",
  "test": "Anticancer human tumor 699152-130-R-J1-PDC patient-derived pancreatic carcinoma cell line growth inhibition [POLQ]",
  "details": "for viability, T/C: stronger effect = lower value",
  "method_in_brief": "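Complex spheroid viability model combining PDC tumour cells with endothelial (HUVEC) and MSC stromal cells. Novobiocin, ART-558 or RP6685 were tested singly and in combination with standard and investigational anticancer drugs. Each was titrated in half-log steps from near clinical Cmax, or from 10 microM where Cmax was unknown.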",
  "note": "Values joined by “and” are separate entries in the source; they are usually repeats but may differ in a detail not shown here. Equal entries are not always repeated.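 Further: spheroids exposed to agents for 7 days before viability reading.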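 Wherever viability, T/C is given: percent of DMSO vehicle control viability so 100% = vehicle and 0% = no viable signal.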",
  "data": [
    {"smiles": "Cn1ncnc1[C@H]1c2n[nH]c(=O)c3cc(F)cc(c23)N[C@@H]1c1ccc(F)cc1", "values": [
      {"measurement": "viability, T/C", "setting": "compound 0.000316 µM", "value": "94.3% and 91% and 102%"},
      {"measurement": "viability, T/C", "setting": "compound 0.001 µM", "value": "88.8% and 78.8% and 93%"},
      {"measurement": "viability, T/C", "setting": "compound 0.00316 µM", "value": "95% and 104% and 108%"},
      {"measurement": "viability, T/C", "setting": "compound 0.01 µM", "value": "80.8% and 104% and 106%"},
      {"measurement": "viability, T/C", "setting": "compound 0.0316 µM", "value": "83.2% and 89.8% and 97.3%"},
      {"measurement": "viability, T/C", "setting": "compound 0.1 µM", "value": "86.5% and 95.5% and 92.5%"},
      {"measurement": "IC50", "setting": "curve of compound", "value": "> 0.1", "unit": "µM"}
    ]},
    {"smiles": "CCc1c2c(nc3ccc(O)cc13)-c1cc3c(c(=O)n1C2)COC(=O)[C@]3(O)CC", "values": [
      {"measurement": "viability, T/C", "setting": "compound 0.00316 µM", "value": "79.8% and 73.5% and 71.1%"},
      {"measurement": "viability, T/C", "setting": "compound 0.01 µM", "value": "59.2% and 56% and 49.9%"},
      {"measurement": "viability, T/C", "setting": "compound 0.0316 µM", "value": "55.4% and 52.2% and 41.7%"},
      {"measurement": "viability, T/C", "setting": "compound 0.1 µM", "value": "45.9% and 44.3% and 37.6%"},
      {"measurement": "viability, T/C", "setting": "compound 0.316 µM", "value": "24.9% and 35.3% and 28.6%"},
      {"measurement": "viability, T/C", "setting": "compound 1 µM", "value": "7.27% and 9.92% and 8.91%"},
      {"measurement": "IC50", "setting": "curve of compound", "value": "0.0471 µM and 0.0383 µM and 0.0191 µM"}
    ]},
    {"smiles": "C=CCn1c(=O)c2cnc(Nc3ccc(N4CCN(C)CC4)cc3)nc2n1-c1cccc(C(C)(C)O)n1", "values": [
      {"measurement": "viability, T/C", "setting": "compound 0.00316 µM", "value": "103% and 97% and 105%"},
      {"measurement": "viability, T/C", "setting": "compound 0.01 µM", "value": "104% and 91.6% and 100%"},
      {"measurement": "viability, T/C", "setting": "compound 0.0316 µM", "value": "88.6% and 89.3% and 105%"},
      {"measurement": "viability, T/C", "setting": "compound 0.1 µM", "value": "96.8% and 92.2% and 110%"},
      {"measurement": "viability, T/C", "setting": "compound 0.316 µM", "value": "90.3% and 78.7% and 84.2%"},
      {"measurement": "viability, T/C", "setting": "compound 1 µM", "value": "74.6% and 69.8% and 72.5%"},
      {"measurement": "IC50", "setting": "curve of compound", "value": "> 1", "unit": "µM"}
    ]},
    {"smiles": "C=CC(=O)N1CCN(c2nc(=O)n(-c3c(C)ccnc3C(C)C)c3nc(-c4c(O)cccc4F)c(F)cc23)C(C)C1", "note": "(stereo unspecified)", "values": [
      {"measurement": "viability, T/C", "setting": "compound 0.0316 µM", "value": "105% and 104% and 110%"},
      {"measurement": "viability, T/C", "setting": "compound 0.1 µM", "value": "103% and 99.2% and 98%"},
      {"measurement": "viability, T/C", "setting": "compound 0.316 µM", "value": "108% (2×) and 115%"},
      {"measurement": "viability, T/C", "setting": "compound 1 µM", "value": "113% and 97.7% and 121%"},
      {"measurement": "viability, T/C", "setting": "compound 3.16 µM", "value": "118% and 115% and 113%"},
      {"measurement": "viability, T/C", "setting": "compound 10 µM", "value": "109% and 106% and 105%"},
      {"measurement": "IC50", "setting": "curve of compound", "value": "> 10", "unit": "µM"}
    ]},
    {"smiles": "COc1ccc([C@@H](O)c2cc(-c3ncnc4cc(N5CCOCC5)ccc34)c(F)cc2Cl)nn1", "values": [
      {"measurement": "viability, T/C", "setting": "compound 0.0316 µM", "value": "111% and 87.9% and 88.4%"},
      {"measurement": "viability, T/C", "setting": "compound 0.1 µM", "value": "96.7% and 92.9% and 106%"},
      {"measurement": "viability, T/C", "setting": "compound 0.316 µM", "value": "94.5% and 88.7% and 79.7%"},
      {"measurement": "viability, T/C", "setting": "compound 1 µM", "value": "84.6% and 77.3% and 75%"},
      {"measurement": "viability, T/C", "setting": "compound 3.16 µM", "value": "49.6% and 50.5% and 60.4%"},
      {"measurement": "viability, T/C", "setting": "compound 10 µM", "value": "23.9% and 19.9% and 19.4%"},
      {"measurement": "IC50", "setting": "curve of compound", "value": "3.41 µM and 3.19 µM and 3.96 µM"}
    ]},
    {"smiles": "CC1COCCN1c1cc(-c2ccnn2C)c2ccnc(-c3ccn[nH]3)c2n1", "note": "(stereo unspecified)", "values": [
      {"measurement": "viability, T/C", "setting": "compound 0.0316 µM", "value": "94.9% and 97.6% and 88.8%"},
      {"measurement": "viability, T/C", "setting": "compound 0.1 µM", "value": "89.1% (2×) and 80.8%"},
      {"measurement": "viability, T/C", "setting": "compound 0.316 µM", "value": "71.1% and 68.5% and 77.8%"},
      {"measurement": "viability, T/C", "setting": "compound 1 µM", "value": "63.7% and 58.2% and 58.9%"},
      {"measurement": "viability, T/C", "setting": "compound 3.16 µM", "value": "49% and 54.1% and 49.1%"},
      {"measurement": "viability, T/C", "setting": "compound 10 µM", "value": "56.3% and 58.4% and 50.5%"},
      {"measurement": "IC50", "setting": "curve of compound", "value": "> 10 µM and 5.9 µM"}
    ]},
    {"smiles": "O=C(Nc1ccc(O)c(NS(=O)(=O)c2ccc(F)cc2)c1)c1ccc(-c2ccccc2)cc1", "values": [
      {"measurement": "viability, T/C", "setting": "compound 0.0316 µM", "value": "114% and 90.3% and 92.6%"},
      {"measurement": "viability, T/C", "setting": "compound 0.1 µM", "value": "104% and 94.2% and 112%"},
      {"measurement": "viability, T/C", "setting": "compound 0.316 µM", "value": "101% and 103% (2×)"},
      {"measurement": "viability, T/C", "setting": "compound 1 µM", "value": "102% and 109% and 107%"},
      {"measurement": "viability, T/C", "setting": "compound 3.16 µM", "value": "106% and 108% and 112%"},
      {"measurement": "viability, T/C", "setting": "compound 10 µM", "value": "71.6% and 70% and 81.6%"},
      {"measurement": "IC50", "setting": "curve of compound", "value": "> 10", "unit": "µM"}
    ]},
    {"smiles": "Cc1cccc(N(C)C(=O)C2C(O)CCN2c2nc(C)cc(C(F)(F)F)c2C#N)c1", "note": "(stereo unspecified)", "values": [
      {"measurement": "viability, T/C", "setting": "compound 0.0316 µM", "value": "105% [middle of 13 runs]"},
      {"measurement": "viability, T/C", "setting": "compound 0.1 µM", "value": "102% [middle of 13 runs]"},
      {"measurement": "viability, T/C", "setting": "compound 0.316 µM", "value": "101% [middle of 13 runs]"},
      {"measurement": "viability, T/C", "setting": "compound 1 µM", "value": "104% [middle of 13 runs]"},
      {"measurement": "viability, T/C", "setting": "compound 10 µM", "value": "102% [middle of 13 runs]"},
      {"measurement": "IC50", "setting": "compound alone, run of 11/27/2023", "value": "> 10", "unit": "µM"},
      {"measurement": "IC50", "setting": "compound alone, run of 12/05/2023", "value": "> 10", "unit": "µM"}
    ]}
  ]
}
